According to patent US12083159B2, “Antibacterial compositions, methods of making and use thereof” (MOREHOUSE SCHOOL OF MEDICINE, priority 2011, dated 2024):
Where no end group is shown, it is not given here.

Tests used:
[1] = test system: Escherichia coli 042; assay: Biofilm formation, crystal violet assay (microtiter plate); assay type: cell-based; conditions: FIG. 13
Method: (§1) Biofilm Formation and Measurement Procedures by Crystal Violet Assay: (1) incubate bacteria in agar plate; (2) single colony was transferred to fresh medium and incubated for overnight; (3) cultures were diluted 1:50 into fresh medium and (4) was dispensed into 96 well plate and incubated for overnight; (5) detection of bacteria growth ability, the OD at 600 nm was determined by the SpectraMax M5 Microplate Reader (6) washed by 1× PBS; (7) stained with crystal violet; (8) detection of biofilm, the OD at 570 nm was determined by the SpectraMax M5 Microplate Reader.
(§2) SMR(mut)-CPP (tat) peptide was used as a negative control.
(§3) Bacterial strains evaluated for biofilm formation included (1) the Gram-negative Vibrio cholerae C7258 strain (A. J. Silva et al., J. Bact., 190 (22):7335-7345 (November 2008); J. C. Ayala et al., Genomics data 5, pp. 147-150, (2015)); (2) the Gram-negative Escherichia coli 042 strain (Taxonomy ID: 216592, R. R. Chaudhuri et al, PLOS One, 5(1):e8801 (Jan. 20, 2010), and (3) the Gram-positive Staphylococcus aureus SCO1 strain (ATCC 12228, S. Sarkar et al., PLos One, 10(2):e0117613 (2015). The Vibrio cholerae, Escherichia coli and Staphylococcus aureus strains and plasmids are listed in the references cited in Table 2.
(§4) The Vibrio cholerae, Escherichia coli and Staphylococcus aureus strains were treated with SMRwt-CPP and SMRmut-CPP peptides and screened for inhibition of their biofilm-forming capacity using microtiter plate (MtP) methods (FIGS. 12-14 (crystal violet assays)) and confocal microscopy (FIGS. 15-16 (intensity count on confocal images).

[2] = test system: Staphylococcus aureus SCO1; assay: as above; assay type: cell-based; conditions: FIG. 14
Method: as §1, §2, §3, §4

[3] = test system: Vibrio cholerae C7258; assay: as above; assay type: cell-based; conditions: FIG. 12
Method: as §1, §2, §3, §4

[4] = test system: Jurkat; assay type: cell-based; conditions: Jurkat cultures, 12 days
Method: Jurkat cultures seeded at low density were grown in the presence of the SMRwt or the SMRmut peptide. A small but consistent aliquot was taken from each culture daily over a period of 12 days. The cells in the aliquot were counted and the cells/ml in the culture calculated to determine culture growth. The data are shown with time on the x-axis and cell number on the y-axis.
Neither peptide cause cell death (data not shown). Using immunoprecipitation with the SMRwt peptide as bait to screen for cellular factors interacting with the SMR domain, a cellular protein Mortalin was co-immunoprecipitated with the SMRwt peptide (FIG. 3). Mortalin, also known as Glucose-regulated protein 75 (GRP75) and Peptide-binding protein 74, is a 679 amino acid long, uninducible member of the heat shock protein 70 family. It has a high degree of identity with other members of the Hsp70 family, including Escherichia coli DnaK.

[5] = test system: Staphylococcus aureus SCO1; assay: Biofilm formation, SYTO9 confocal microscopy, ImageJ; assay type: cell-based; conditions: 24 h static, 18, 36, 72 nM, FIG. 15
Method: (§5) Strain SCO1 was grown in LB medium at 37° C. to stationary phase. The cultures were diluted 100 fords in fresh medium and biofilm allowed to develop under static conditions for 24 h in Mat Tek glass bottom culture plates. Biofilm formation was stained with SYTO9 and observed by Leico confocal microscopy and three-dimensional (3D) views of S. aureus and measured using the ImageJ. (A) Confocal images, (B) 3D images, and (C) bar graphs showing the inhibit effect of biofilm formation. Error bars represent the mean±SD of two independent experiments. Asterisks (*) indicate significant differences (p≤0.05) relative to negative control *p<0.01 (18 nM), **p<0.001 (36 nM, 72 nM) in SMR-CPP peptide treatment. Each value represents the mean of three independent experiments. Error bars denote the standard deviation (STDEV).
as §4

[6] = test system: V. cholerae C7258; assay: as above; assay type: cell-based, Vibrio cholerae; conditions: 24 h static, 18, 36, 72 nM, FIG. 16
Method: as §5, with “V. cholerae C7258” for “SCO1”, “30°” for “37°”, “V. cholerae” for “S. aureus”, “vs 18” for “(18 nM), **p<0.001 (36”, “nM, 36 nM and” for “nM,”, “nM SMRwt-CPP” for “nM) in SMR-CPP”
as §4

Sequence | inhibition of biofilm formation [1] | inhibition of biofilm formation [2] | inhibition of biofilm formation [3] | effect on eukaryotic cell growth [4] | inhibition of biofilm formation [5] | inhibition of biofilm formation [6]
AGFPVAAAGFPVGRKKRRQRRRPPQ [SMRmut-CPP, reference compound] | no significant effect | no significant effect | no significant effect |  |  | 
VGFPVAAVGFPVDYKDDDDK [SMRwt] |  |  |  | no effect on eukaryotic cell growth |  | 
VGFPVAAVGFPVGRKKRRQRRRPPQ [SMRwt-CPP] | dose-response inhibition of biofilm formation | dose-response inhibition of biofilm formation | dose-response inhibition of biofilm formation |  | dose-response inhibition of biofilm formation | dose-response inhibition of biofilm formation
AGFPVAAAGFPVDYKDDDDK [SMRmut, reference compound] |  |  |  | no effect on eukaryotic cell growth |  | 
